How the values were obtained:
[1] = Inhibition of cPLA2alpha
[2] = Inhibition of human recombinant His-tagged cPLA2alpha expressed in baculovirus-infected Sf9 cells assessed as residual activity at 10 uM after 1 hr by RP-HPLC analysis
[3] = Aqueous solubility of the compound at >10 uM; format: physicochemical; settings: buffer
[4] = Inhibition of human recombinant His-tagged cPLA2alpha expressed in baculovirus-infected Sf9 cells after 1 hr by RP-HPLC analysis
[5] = Inhibition of cPLA2alpha-mediated [3H]-arachidonic acid release in Ca2+ ionophore A23187-stimulated human monocytes preincubated for 15 mins prior Ca2+ ionophore A23187 stimulation measured after 5 mins by scintillation counting

Compound | Activity [2] [%] | solubility [3] | other results
O=C(COc1ccc(C(=O)O)cc1)COc1ccc(C(=O)NCCCCc2ccccc2)cc1 |  |  | IC50 [1]: 20 µM
Cn1ccnc1SCCCCOc1ccc(OCC(=O)COc2ccc(C(=O)O)cc2)cc1 |  |  | IC50 [1]: 63 µM
CCCCCCCCCCCCCCCCOc1ccc(C(=O)O)cc1 | 88.4 | Insoluble | 
CCCCCCCCCCCCCCCC1=NN(c2ccc(S(=O)(=O)O)cc2)C(=O)C1/N=N/c1ccccc1 (centres undefined) | 77.1 | Insoluble | 
CN(CCc1ccccc1)C(=O)CSc1ccc(OCC(=O)COc2ccc(C(=O)O)cc2)cc1 |  |  | IC50 [1]: 34 µM
CCCCCCCCCCCCCCCCN(C)c1ccc(S(=O)(=O)O)cc1[N+](=O)[O-] | 61.4 | Insoluble | 
CCCCCCCCCCCCCCCc1cc(=O)n(-c2ccc(NC(=O)/C=C/C(=O)O)cc2)n1C | 92.6 | Insoluble | 
CCCCCCCCCCCCCCCCOc1ccc(S(=O)(=O)N/N=c2/sc3ccc(S(=O)(=O)O)cc3n2C)cc1C(=O)O | 70.2 | Insoluble | 
CCCCCCCCCCCCCCCCCC1=NCCN1CS(=O)(=O)O | 94.7 | Insoluble | 
Cc1cc(N)ccc1/N=N/c1ccc(/N=N/c2ccc(/N=N/c3ccc4cc(S(=O)(=O)O)cc(S(=O)(=O)O)c4c3)c(C)c2)c(C)c1 | 81.9 | Insoluble | 
O=C(COc1ccc(SCCCCCc2ccccc2)cc1)COc1ccc(C(=O)O)cc1 |  |  | IC50 [1]: 0.004 µM
Cc1cc(-c2ccc(/N=N/c3c(S(=O)(=O)O)cc4cc(S(=O)(=O)O)cc(N)c4c3O)c(C)c2)ccc1/N=N/c1ccc2c(S(=O)(=O)O)ccc(N)c2c1O | 87.5 | Insoluble | 
COc1cc(/N=N/c2ccc3cc(S(=O)(=O)O)cc(S(=O)(=O)O)c3c2)ccc1/N=N/c1ccc(NC(=O)c2ccc(NC(=O)c3ccccc3)cc2)cc1C | 62.7 | Insoluble | 
CCCCCCCCCCCCCCCc1nnc(SCC(=O)O)[nH]1 | 85.1 | Insoluble | 
O=C(COc1ccc(SCCCCSc2nccs2)cc1)COc1ccc(C(=O)O)cc1 |  |  | IC50 [1]: 0.76 µM
CCCCCCCCCCCCCCCCOc1ccc(C(=O)O)cc1NC(=O)/C(=N/O)C(C)=O |  |  | IC50 [4]: 4 µM; IC50 [5]: 5 µM
CCCCCCCCCCCCCCCCCC1=NCCN1CCN(CS(=O)(=O)O)CS(=O)(=O)O | 106 | Insoluble | 

Source: ChEMBL document CHEMBL1944552, “Pharmacophore-based discovery of a novel cytosolic phospholipase A(2)α inhibitor” (Bioorg Med Chem Lett, 2012)
